Results: the kinase profiling compilation of Christmann-Franck et al. (2016)
Several values for one entry are separate records, joined by “and”; a condition that tells them apart may be missing. Equal entries are not always repeated.

Tests used:
Assay in all cases: radiometric filter-binding kinase assay, Kinase HotSpot
Settings in all cases: compound 0.5 µM; ATP 10 µM
STK38 (human) = STK38 (human) (UniProt Q15208)
MARK4 (human) = MARK4 (human) (UniProt Q96L34)
[1] = target: JAK1 JH1 catalytic (human) (UniProt P23458)
STK25 (human) = STK25 (human) (UniProt O00506)
TLK2 (human) = TLK2 (human) (UniProt Q86UE8)
CHEK1 (human) = CHEK1 (human) (UniProt O14757)
CHEK1 (human), sequence (O14757 whole entry, looked up): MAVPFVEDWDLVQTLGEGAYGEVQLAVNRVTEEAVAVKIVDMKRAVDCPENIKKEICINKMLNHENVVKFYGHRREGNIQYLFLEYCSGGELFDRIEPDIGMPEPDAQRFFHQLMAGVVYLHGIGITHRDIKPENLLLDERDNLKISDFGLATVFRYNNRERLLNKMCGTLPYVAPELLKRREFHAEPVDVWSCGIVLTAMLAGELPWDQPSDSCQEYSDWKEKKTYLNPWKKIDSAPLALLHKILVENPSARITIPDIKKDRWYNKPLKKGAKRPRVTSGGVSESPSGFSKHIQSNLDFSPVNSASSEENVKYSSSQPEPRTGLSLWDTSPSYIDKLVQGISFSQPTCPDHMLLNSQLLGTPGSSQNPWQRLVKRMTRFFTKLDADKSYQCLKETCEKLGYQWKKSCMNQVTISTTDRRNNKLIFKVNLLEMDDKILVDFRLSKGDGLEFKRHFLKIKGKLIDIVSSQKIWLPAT

SRC (human) = SRC (human) (UniProt P12931)
SRC (human), sequence (P12931 whole entry, looked up): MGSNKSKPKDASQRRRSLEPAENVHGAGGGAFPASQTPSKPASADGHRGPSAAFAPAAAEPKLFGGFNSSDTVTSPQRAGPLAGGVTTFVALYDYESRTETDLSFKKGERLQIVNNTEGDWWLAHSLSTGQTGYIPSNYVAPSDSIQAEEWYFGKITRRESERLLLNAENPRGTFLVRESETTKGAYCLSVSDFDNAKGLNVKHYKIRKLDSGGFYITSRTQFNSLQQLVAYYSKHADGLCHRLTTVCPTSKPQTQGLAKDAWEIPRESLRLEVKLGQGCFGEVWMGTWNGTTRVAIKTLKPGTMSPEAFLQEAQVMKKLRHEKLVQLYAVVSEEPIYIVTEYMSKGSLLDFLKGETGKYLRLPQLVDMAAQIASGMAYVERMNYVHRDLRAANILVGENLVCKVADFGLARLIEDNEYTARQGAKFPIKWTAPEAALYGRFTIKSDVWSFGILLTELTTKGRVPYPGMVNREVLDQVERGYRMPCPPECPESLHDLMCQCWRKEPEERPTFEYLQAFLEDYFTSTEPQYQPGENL

CDK3 CCNE1 (human) = CDK3 CCNE1 (human) (UniProt Q00526+P24864)
RPS6KA2 KD1 KD2 (human) = RPS6KA2 KD1 KD2 (human) (UniProt Q15349)
DSTYK (human) = DSTYK (human) (UniProt Q6XUX3)
EGFR (human) = EGFR (human) (UniProt P00533)
TAOK1 (human) = TAOK1 (human) (UniProt Q7L7X3)
MYO3B (human) = MYO3B (human) (UniProt Q8WXR4)
PRKACG (human) = PRKACG (human) (UniProt P22612)
PRKACG (human), sequence (P22612 whole entry, looked up): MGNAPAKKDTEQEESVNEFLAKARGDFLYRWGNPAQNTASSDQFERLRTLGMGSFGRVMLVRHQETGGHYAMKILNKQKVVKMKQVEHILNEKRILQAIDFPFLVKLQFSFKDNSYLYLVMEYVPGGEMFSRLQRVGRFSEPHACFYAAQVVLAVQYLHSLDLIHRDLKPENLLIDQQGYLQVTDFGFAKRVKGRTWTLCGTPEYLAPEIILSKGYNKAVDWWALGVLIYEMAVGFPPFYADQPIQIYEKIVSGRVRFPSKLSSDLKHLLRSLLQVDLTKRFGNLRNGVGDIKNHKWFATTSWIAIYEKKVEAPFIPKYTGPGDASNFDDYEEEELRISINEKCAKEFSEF

TYRO3 (human) = TYRO3 (human) (UniProt Q06418)
ITK (human) = ITK (human) (UniProt Q08881)
ITK (human), sequence (Q08881 whole entry, looked up): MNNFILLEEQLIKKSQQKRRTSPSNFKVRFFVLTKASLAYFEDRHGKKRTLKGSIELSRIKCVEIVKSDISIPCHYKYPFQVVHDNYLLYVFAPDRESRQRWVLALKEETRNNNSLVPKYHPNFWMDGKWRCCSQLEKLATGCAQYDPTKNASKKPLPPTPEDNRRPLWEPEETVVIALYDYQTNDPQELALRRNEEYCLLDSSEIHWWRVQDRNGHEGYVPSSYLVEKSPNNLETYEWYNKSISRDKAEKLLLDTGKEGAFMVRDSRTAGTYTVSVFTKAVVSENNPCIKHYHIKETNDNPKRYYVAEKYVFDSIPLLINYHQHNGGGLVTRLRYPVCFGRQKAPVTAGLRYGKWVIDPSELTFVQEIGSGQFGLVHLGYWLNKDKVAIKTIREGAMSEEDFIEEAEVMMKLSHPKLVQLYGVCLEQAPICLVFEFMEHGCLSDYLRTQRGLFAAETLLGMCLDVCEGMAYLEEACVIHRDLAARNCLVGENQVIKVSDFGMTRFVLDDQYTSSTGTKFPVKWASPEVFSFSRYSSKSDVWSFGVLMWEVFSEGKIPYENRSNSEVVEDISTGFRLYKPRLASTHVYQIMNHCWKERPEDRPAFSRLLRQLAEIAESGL

PRKCG (human) = PRKCG (human) (UniProt P05129)
NUAK2 (human) = NUAK2 (human) (UniProt Q9H093)
CSNK1A1 (human) = CSNK1A1 (human) (UniProt P48729)
CAMK2B (human) = CAMK2B (human) (UniProt Q13554)
RPS6KA1 KD1 KD2 (human) = RPS6KA1 KD1 KD2 (human) (UniProt Q15418)
PASK (human) = PASK (human) (UniProt Q96RG2)
EPHA8 (human) = EPHA8 (human) (UniProt P29322)
DYRK2 (human) = DYRK2 (human) (UniProt Q92630)
CLK4 (human) = CLK4 (human) (UniProt Q9HAZ1)
CSNK1G3 (human) = CSNK1G3 (human) (UniProt Q9Y6M4)
CSNK1G3 (human), sequence (Q9Y6M4 whole entry, looked up): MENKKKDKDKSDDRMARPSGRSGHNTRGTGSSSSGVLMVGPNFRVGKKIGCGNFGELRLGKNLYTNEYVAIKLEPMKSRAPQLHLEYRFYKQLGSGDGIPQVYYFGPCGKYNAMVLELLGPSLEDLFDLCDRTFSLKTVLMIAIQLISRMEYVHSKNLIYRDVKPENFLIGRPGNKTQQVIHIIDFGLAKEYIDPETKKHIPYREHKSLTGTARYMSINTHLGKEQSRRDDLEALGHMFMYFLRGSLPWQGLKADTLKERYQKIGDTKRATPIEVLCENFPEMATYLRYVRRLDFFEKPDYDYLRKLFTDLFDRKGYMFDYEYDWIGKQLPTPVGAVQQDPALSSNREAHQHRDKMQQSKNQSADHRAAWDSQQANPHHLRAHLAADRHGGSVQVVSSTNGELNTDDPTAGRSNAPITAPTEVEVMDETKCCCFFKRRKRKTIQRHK

PRKCE (human) = PRKCE (human) (UniProt Q02156)
MAPK8 (human) = MAPK8 (human) (UniProt P45983)
MAPK8 (human), sequence (P45983 whole entry, looked up): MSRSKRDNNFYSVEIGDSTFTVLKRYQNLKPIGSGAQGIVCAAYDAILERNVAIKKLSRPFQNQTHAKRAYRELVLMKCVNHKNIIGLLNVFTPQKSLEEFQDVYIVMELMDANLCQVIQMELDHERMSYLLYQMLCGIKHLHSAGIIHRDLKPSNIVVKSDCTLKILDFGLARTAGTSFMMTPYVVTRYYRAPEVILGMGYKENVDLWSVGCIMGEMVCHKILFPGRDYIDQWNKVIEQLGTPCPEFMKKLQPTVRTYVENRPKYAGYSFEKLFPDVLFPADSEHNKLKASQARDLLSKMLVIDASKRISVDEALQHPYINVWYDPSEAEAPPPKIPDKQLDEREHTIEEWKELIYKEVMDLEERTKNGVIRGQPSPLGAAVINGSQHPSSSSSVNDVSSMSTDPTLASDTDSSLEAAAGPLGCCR

PRKCZ (human) = PRKCZ (human) (UniProt Q05513)
PRKCZ (human), sequence (Q05513 whole entry, looked up): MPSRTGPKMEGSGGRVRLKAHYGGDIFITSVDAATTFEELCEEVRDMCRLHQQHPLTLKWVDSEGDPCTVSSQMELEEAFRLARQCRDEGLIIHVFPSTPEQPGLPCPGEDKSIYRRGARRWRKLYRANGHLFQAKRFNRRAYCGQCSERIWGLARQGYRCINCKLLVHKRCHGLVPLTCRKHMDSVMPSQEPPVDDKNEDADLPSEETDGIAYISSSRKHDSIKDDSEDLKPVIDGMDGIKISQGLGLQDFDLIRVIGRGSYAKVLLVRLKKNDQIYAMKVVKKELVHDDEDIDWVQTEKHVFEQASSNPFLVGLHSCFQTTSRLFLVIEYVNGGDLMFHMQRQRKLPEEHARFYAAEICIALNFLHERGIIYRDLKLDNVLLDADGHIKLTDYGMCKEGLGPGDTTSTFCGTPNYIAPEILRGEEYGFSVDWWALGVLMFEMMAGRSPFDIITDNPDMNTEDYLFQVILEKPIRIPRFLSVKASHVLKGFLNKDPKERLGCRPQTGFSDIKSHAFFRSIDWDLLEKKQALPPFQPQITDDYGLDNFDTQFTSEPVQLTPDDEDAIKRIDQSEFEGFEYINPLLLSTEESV

ULK3 (human) = ULK3 (human) (UniProt Q6PHR2)
PKN1 (human) = PKN1 (human) (UniProt Q16512)
MAPK3 (human) = MAPK3 (human) (UniProt P27361)
PRKG1 (human) = PRKG1 (human) (UniProt Q13976)
EPHA6 (human) = EPHA6 (human) (UniProt Q9UF33)
EPHA6 (human), sequence (Q9UF33 whole entry, looked up): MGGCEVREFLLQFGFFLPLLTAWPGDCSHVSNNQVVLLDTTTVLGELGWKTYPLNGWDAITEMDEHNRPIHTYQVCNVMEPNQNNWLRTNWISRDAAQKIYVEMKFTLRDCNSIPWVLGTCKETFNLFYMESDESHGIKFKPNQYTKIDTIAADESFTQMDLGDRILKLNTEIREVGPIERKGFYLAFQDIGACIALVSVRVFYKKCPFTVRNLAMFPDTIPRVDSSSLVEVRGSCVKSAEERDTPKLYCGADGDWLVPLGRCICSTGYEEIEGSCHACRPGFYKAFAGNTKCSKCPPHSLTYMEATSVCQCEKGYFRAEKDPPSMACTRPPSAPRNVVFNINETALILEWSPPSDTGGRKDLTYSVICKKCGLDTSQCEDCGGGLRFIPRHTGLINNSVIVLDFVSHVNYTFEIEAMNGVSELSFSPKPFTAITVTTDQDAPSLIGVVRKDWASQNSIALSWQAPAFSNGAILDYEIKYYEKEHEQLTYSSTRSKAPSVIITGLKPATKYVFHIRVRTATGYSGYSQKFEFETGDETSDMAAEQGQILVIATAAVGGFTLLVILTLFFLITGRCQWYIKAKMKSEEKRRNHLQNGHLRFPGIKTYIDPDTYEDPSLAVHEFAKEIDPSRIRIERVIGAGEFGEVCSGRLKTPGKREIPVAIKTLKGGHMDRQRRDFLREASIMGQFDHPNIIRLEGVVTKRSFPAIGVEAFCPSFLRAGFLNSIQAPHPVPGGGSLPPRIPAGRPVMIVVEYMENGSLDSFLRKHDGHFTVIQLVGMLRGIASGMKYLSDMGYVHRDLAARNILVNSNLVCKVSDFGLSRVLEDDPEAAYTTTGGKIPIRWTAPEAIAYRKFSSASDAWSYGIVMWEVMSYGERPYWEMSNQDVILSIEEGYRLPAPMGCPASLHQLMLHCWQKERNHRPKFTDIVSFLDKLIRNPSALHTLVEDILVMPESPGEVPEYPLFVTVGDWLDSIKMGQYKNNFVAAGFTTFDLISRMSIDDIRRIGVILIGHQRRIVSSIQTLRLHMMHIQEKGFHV

ABL1 (human) = ABL1 (human) (UniProt P00519)
ROS1 (human) = ROS1 (human) (UniProt P08922)
INSRR (human) = INSRR (human) (UniProt P14616)
CSNK2A2 (human) = CSNK2A2 (human) (UniProt P19784)
PDGFRB (human) = PDGFRB (human) (UniProt P09619)

STK38 (human), sequence (Q15208 whole entry, looked up): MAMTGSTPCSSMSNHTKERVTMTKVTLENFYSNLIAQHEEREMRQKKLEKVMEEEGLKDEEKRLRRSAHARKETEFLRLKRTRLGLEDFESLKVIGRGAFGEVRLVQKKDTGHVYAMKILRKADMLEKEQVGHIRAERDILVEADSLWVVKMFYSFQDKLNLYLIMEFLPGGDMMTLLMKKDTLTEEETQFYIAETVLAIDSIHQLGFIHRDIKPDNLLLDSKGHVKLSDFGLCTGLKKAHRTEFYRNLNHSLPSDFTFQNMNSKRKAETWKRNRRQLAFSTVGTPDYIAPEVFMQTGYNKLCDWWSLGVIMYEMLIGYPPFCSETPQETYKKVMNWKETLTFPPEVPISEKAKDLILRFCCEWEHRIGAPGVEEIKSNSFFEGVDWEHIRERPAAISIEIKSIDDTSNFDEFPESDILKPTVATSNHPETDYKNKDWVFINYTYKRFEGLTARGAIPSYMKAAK

## CCCNC(=O)Nc1ccc(Oc2ncnc3cc(OC)c(OC)cc23)cc1Cl
STK38 (human)
  residual activity: 87.9%
MARK4 (human)
  residual activity: 110%
[1]
  residual activity: 99.2%
STK25 (human)
  residual activity: 92.6%
TLK2 (human)
  residual activity: 99.5%
CHEK1 (human)
  residual activity: 77%
SRC (human)
  residual activity: 98.6%
CDK3 CCNE1 (human)
  residual activity: 94%
RPS6KA2 KD1 KD2 (human)
  residual activity: 95.7%
DSTYK (human)
  residual activity: 88.6%
EGFR (human)
  residual activity: 88.1%
TAOK1 (human)
  residual activity: 92.2%
MYO3B (human)
  residual activity: 76.2%
PRKACG (human)
  residual activity: 106%
TYRO3 (human)
  residual activity: 102%
ITK (human)
  residual activity: 96.9%
PRKCG (human)
  residual activity: 120%
NUAK2 (human)
  residual activity: 123%
CSNK1A1 (human)
  residual activity: 98.9%
CAMK2B (human)
  residual activity: 94.9%
RPS6KA1 KD1 KD2 (human)
  residual activity: 92.3%
PASK (human)
  residual activity: 87.7%
EPHA8 (human)
  residual activity: 105%
DYRK2 (human)
  residual activity: 108%
CLK4 (human)
  residual activity: 94.2%
CSNK1G3 (human)
  residual activity: 105%
PRKCE (human)
  residual activity: 96.8%
MAPK8 (human)
  residual activity: 107%
PRKCZ (human)
  residual activity: 102%
ULK3 (human)
  residual activity: 80.7%
PKN1 (human)
  residual activity: 99.1%
MAPK3 (human)
  residual activity: 105%
PRKG1 (human)
  residual activity: 76.8% and 95.4%
EPHA6 (human)
  residual activity: 77.7%
ABL1 (human)
  residual activity: 89%
ROS1 (human)
  residual activity: 97.6%
INSRR (human)
  residual activity: 98.4%

## NC(=O)c1ccc(N(C(N)=O)c2c(F)cccc2F)nc1-c1ccc(F)cc1F
STK38 (human)
  residual activity: 101%
MARK4 (human)
  residual activity: 102%
[1]
  residual activity: 98.8%
STK25 (human)
  residual activity: 97.1%
TLK2 (human)
  residual activity: 95.7%
CHEK1 (human)
  residual activity: 89.2%
SRC (human)
  residual activity: 109%
CSNK2A2 (human)
  residual activity: 109%
CDK3 CCNE1 (human)
  residual activity: 94.7%
RPS6KA2 KD1 KD2 (human)
  residual activity: 97.5%
DSTYK (human)
  residual activity: 101%
EGFR (human)
  residual activity: 92.7%
TAOK1 (human)
  residual activity: 96.2%
MYO3B (human)
  residual activity: 99.2%
PRKACG (human)
  residual activity: 109%
TYRO3 (human)
  residual activity: 101%
ITK (human)
  residual activity: 105%
PRKCG (human)
  residual activity: 91.3%
NUAK2 (human)
  residual activity: 98.7%
CAMK2B (human)
  residual activity: 104%
RPS6KA1 KD1 KD2 (human)
  residual activity: 109%
PASK (human)
  residual activity: 103%
EPHA8 (human)
  residual activity: 98.7%
PDGFRB (human)
  residual activity: 62.8%
DYRK2 (human)
  residual activity: 102%
CLK4 (human)
  residual activity: 114%
CSNK1G3 (human)
  residual activity: 103%
PRKCE (human)
  residual activity: 101%
MAPK8 (human)
  residual activity: 100%
PRKCZ (human)
  residual activity: 89.9%
ULK3 (human)
  residual activity: 101%
PKN1 (human)
  residual activity: 101%
MAPK3 (human)
  residual activity: 95.2%
PRKG1 (human)
  residual activity: 88.1% and 95.7%
EPHA6 (human)
  residual activity: 95%
ABL1 (human)
  residual activity: 99.7%
ROS1 (human)
  residual activity: 95%
INSRR (human)
  residual activity: 102%

## O=c1cc(N2CCNCC2)oc2c(-c3ccccc3)cccc12
STK38 (human)
  residual activity: 94.3%
MARK4 (human)
  residual activity: 92.8%
[1]
  residual activity: 108%
STK25 (human)
  residual activity: 116%
TLK2 (human)
  residual activity: 94.8%
CHEK1 (human)
  residual activity: 104%
SRC (human)
  residual activity: 91.2%
CDK3 CCNE1 (human)
  residual activity: 96.9%
RPS6KA2 KD1 KD2 (human)
  residual activity: 106%
DSTYK (human)
  residual activity: 92.8%
EGFR (human)
  residual activity: 110%
TAOK1 (human)
  residual activity: 90.8%
MYO3B (human)
  residual activity: 97.5%
PRKACG (human)
  residual activity: 83.2%
TYRO3 (human)
  residual activity: 107%
ITK (human)
  residual activity: 88.1%
PRKCG (human)
  residual activity: 96.1%
NUAK2 (human)
  residual activity: 89.2%
CSNK1A1 (human)
  residual activity: 104%
CAMK2B (human)
  residual activity: 108%
RPS6KA1 KD1 KD2 (human)
  residual activity: 104%
PASK (human)
  residual activity: 93%
EPHA8 (human)
  residual activity: 98.1%
PDGFRB (human)
  residual activity: 101%
DYRK2 (human)
  residual activity: 96.8%
CLK4 (human)
  residual activity: 88.9%
CSNK1G3 (human)
  residual activity: 102%
PRKCE (human)
  residual activity: 104%
MAPK8 (human)
  residual activity: 89.3%
PRKCZ (human)
  residual activity: 116%
ULK3 (human)
  residual activity: 101%
PKN1 (human)
  residual activity: 99.6%
MAPK3 (human)
  residual activity: 119%
PRKG1 (human)
  residual activity: 100% and 102%
EPHA6 (human)
  residual activity: 88.2%
ABL1 (human)
  residual activity: 110%
ROS1 (human)
  residual activity: 99.2%
INSRR (human)
  residual activity: 89.2%
